Values after ≈ are worked out from the molar mass of the structure shown.
What was measured:
[1] = biological target: T1, P2X purinoceptor 7 (Homo sapiens, UniProt Q99572); assay: Antagonist activity at recombinant human P2X7 receptor expressed in human 1321N1 cells assessed as inhibition of Bz-ATP-induced Ca2+ flux preincubated for 30 mins followed by agonist addition measured after 180 sec by calcium-4 dye based FLIPR assay; format: cell-based
T1 sequence (Q99572 whole entry): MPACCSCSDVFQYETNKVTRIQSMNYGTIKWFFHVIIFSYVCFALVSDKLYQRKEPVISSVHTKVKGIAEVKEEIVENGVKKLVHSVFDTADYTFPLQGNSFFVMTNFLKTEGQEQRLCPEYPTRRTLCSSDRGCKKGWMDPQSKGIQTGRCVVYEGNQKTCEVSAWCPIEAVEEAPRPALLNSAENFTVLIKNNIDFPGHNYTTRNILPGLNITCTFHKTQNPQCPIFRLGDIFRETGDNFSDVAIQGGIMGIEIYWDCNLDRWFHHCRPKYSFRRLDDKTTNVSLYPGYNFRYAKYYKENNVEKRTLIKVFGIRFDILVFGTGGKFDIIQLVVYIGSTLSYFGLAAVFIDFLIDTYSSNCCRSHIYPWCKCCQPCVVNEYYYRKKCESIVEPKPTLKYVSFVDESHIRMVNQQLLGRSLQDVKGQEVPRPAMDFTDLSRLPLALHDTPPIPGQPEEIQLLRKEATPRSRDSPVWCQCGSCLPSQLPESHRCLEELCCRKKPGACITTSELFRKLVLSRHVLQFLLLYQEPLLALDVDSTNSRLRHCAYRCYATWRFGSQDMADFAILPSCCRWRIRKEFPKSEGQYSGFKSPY

[2] = in vitro; conditions: rat, liver microsomes
Description: Extraction ratio in rat liver microsomes at 1 uM upto 60 mins in presence of NDPH by LC/MS/MS analysis

[3] = biological target: T2, P2X purinoceptor 7 (Rattus norvegicus, UniProt Q64663); assay: Antagonist activity at recombinant rat P2X7 receptor expressed in human 1321N1 cells assessed as inhibition of Bz-ATP-induced Ca2+ flux preincubated for 30 mins followed by agonist addition measured after 180 sec by calcium-4 dye based FLIPR assay; format: cell-based
T2 sequence (Q64663 whole entry): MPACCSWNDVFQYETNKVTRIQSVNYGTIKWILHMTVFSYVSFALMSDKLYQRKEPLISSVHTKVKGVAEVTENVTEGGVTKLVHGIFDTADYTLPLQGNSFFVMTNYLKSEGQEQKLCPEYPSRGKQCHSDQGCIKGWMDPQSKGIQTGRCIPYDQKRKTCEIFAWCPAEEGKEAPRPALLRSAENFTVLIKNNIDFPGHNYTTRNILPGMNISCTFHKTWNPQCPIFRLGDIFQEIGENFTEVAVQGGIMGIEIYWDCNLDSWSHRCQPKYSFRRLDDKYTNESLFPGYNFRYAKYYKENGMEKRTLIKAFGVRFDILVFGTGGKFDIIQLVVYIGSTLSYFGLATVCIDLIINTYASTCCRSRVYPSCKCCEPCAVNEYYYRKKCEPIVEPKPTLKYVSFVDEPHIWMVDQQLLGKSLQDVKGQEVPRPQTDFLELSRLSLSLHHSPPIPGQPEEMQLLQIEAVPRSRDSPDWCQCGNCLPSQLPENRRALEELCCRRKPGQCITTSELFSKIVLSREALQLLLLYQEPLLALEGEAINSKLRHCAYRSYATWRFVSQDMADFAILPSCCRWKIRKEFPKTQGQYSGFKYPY

[4] = in vitro; conditions: human, liver microsomes
Description: Extraction ratio in human liver microsomes at 1 uM upto 60 mins in presence of NDPH by LC/MS/MS analysis

[5] = biological target: T3, CYP3A4 (Homo sapiens, UniProt P08684); assay: Inhibition of CYP3A4 in human liver microsomes using midazolam as substrate assessed as reduction in 4-OH-midazolam formation at 0.01 uM by LC/MS/MS analysis; conditions: probe midazolam
T3 sequence (P08684 whole entry): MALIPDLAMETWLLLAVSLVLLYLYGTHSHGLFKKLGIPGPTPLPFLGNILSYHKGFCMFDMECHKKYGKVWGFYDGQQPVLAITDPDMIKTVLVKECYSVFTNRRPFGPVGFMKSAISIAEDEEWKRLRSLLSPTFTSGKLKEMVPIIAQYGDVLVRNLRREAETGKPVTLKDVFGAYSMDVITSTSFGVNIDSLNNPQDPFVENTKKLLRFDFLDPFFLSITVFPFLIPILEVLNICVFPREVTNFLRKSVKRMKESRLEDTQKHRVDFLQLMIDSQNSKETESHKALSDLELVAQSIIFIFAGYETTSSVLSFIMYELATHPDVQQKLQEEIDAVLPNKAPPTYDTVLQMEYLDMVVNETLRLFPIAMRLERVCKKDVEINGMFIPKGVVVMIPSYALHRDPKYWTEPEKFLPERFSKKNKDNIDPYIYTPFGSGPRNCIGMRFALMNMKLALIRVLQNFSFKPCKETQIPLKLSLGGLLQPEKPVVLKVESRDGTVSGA

[6] = biological target: T3, CYP3A4; assay: Inhibition of CYP3A4 in human liver microsomes using midazolam as substrate assessed as reduction in 1-OH-midazolam formation at 0.02 uM by LC/MS/MS analysis; conditions: probe midazolam
[7] = biological target: T3, CYP3A4; assay: Inhibition of CYP3A4 in human liver microsomes using midazolam as substrate assessed as reduction in 1-OH-midazolam formation at 0.01 uM by LC/MS/MS analysis; conditions: probe midazolam
[8] = biological target: T3, CYP3A4; assay: Inhibition of CYP3A4 in human liver microsomes using midazolam as substrate assessed as reduction in 4-OH-midazolam formation at 0.02 uM by LC/MS/MS analysis; conditions: probe midazolam
[9] = biological target: Cytochrome P450 2C9 (Homo sapiens, UniProt P11712); assay: Inhibition of CYP2C9 in human liver microsomes using diclofenac as substrate after 15 mins by LC/MS/MS analysis; format: ADME
Chain of Cytochrome P450 2C9 (P11712 whole entry): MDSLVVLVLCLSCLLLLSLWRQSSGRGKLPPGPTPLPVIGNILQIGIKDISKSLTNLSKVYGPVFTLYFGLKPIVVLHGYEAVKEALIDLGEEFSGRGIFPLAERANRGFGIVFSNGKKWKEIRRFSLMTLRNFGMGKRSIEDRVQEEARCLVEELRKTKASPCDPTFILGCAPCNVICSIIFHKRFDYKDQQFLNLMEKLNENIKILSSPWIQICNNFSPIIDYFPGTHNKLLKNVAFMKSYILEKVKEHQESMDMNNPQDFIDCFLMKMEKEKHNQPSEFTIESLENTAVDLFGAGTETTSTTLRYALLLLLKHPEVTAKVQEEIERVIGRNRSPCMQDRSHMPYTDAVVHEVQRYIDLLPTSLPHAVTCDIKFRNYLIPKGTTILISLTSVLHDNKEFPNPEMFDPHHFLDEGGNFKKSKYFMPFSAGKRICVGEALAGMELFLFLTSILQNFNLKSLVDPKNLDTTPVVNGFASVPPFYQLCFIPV

[10] = Protein binding in human plasma at 1 uM after 6 hrs by LC/MS/MS based equilibrium dialysis method; format: ADME, cell-free; conditions: read-out: PPB (converted)
[11] = biological target: T4, P2X purinoceptor 7 (Mus musculus, UniProt Q9Z1M0); assay: Antagonist activity at recombinant mouse P2X7 receptor expressed in human 1321N1 cells assessed as inhibition of Bz-ATP-induced Ca2+ flux preincubated for 30 mins followed by agonist addition measured after 180 sec by calcium-4 dye based FLIPR assay; format: cell-based
T4 sequence (Q9Z1M0 whole entry): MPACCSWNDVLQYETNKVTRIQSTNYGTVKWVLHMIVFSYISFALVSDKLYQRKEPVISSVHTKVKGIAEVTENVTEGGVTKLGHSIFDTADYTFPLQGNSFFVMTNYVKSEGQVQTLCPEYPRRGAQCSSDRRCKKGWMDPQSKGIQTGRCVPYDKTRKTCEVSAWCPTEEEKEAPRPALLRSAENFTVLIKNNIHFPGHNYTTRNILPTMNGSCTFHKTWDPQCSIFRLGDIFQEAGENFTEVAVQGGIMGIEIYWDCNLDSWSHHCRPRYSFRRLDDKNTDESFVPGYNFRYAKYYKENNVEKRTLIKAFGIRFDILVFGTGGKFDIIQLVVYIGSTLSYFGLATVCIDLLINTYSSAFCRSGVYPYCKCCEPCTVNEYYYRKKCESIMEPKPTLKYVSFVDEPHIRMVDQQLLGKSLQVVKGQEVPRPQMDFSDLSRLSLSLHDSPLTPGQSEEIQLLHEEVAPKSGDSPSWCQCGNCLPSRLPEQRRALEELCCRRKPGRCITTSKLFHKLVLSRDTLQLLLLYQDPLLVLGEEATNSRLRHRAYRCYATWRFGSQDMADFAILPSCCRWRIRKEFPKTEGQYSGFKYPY

[12] = Solubility of compound in phosphate buffer at pH 2 at room temperature after 3 days
[13] = Protein binding in rat plasma at 1 uM after 6 hrs by LC/MS/MS based equilibrium dialysis method; format: ADME, cell-free; conditions: read-out: PPB (converted)
[14] = biological target: Cytochrome P450 2D6 (Homo sapiens, UniProt P10635); assay: Inhibition of CYP2D6 in human liver microsomes using dextromethorphan as substrate after 15 mins by LC/MS/MS analysis; format: ADME
Chain of Cytochrome P450 2D6 (P10635 whole entry): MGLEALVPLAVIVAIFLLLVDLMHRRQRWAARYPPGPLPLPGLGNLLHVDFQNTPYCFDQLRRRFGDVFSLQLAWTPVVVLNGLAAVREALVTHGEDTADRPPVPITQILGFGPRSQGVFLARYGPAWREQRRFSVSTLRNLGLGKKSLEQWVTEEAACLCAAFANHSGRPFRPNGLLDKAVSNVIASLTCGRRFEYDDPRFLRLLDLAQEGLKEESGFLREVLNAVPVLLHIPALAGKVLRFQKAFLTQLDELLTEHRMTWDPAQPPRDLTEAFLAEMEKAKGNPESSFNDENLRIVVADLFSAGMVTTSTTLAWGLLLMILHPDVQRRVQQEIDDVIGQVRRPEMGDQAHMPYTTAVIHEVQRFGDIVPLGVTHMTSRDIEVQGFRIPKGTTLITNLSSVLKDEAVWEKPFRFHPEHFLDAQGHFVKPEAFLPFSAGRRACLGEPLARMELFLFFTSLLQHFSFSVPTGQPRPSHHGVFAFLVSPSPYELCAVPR

[15] = biological target: T5, Cytochrome P450 1A2 (Homo sapiens, UniProt P05177); assay: Inhibition of CYP1A2 in human liver microsomes using phenacetin as substrate after 15 mins by LC/MS/MS analysis; format: ADME
T5 sequence (P05177 whole entry): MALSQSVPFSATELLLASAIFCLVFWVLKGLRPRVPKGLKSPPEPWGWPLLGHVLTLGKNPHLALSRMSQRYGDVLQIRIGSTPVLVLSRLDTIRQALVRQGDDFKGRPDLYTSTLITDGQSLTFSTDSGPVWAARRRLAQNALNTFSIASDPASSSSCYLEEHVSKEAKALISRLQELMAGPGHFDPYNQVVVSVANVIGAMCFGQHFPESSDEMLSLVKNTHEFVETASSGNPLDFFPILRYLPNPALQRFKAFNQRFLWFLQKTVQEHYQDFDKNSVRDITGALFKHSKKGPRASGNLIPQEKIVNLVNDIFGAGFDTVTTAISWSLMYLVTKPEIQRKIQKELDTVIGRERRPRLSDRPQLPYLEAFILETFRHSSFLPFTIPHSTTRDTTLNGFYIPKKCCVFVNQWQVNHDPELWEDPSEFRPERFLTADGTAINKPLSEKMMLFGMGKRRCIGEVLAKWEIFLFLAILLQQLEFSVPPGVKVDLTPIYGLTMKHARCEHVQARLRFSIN

[16] = Solubility of the compound in phosphate buffer at pH 7 at room temperature after 3 days
[17] = biological target: Cytochrome P450 2C19 (Homo sapiens, UniProt P33261); assay: Inhibition of CYP2C19 in human liver microsomes using S-mephenytoin as substrate after 15 mins by LC/MS/MS analysis; format: ADME
Chain of Cytochrome P450 2C19 (P33261 whole entry): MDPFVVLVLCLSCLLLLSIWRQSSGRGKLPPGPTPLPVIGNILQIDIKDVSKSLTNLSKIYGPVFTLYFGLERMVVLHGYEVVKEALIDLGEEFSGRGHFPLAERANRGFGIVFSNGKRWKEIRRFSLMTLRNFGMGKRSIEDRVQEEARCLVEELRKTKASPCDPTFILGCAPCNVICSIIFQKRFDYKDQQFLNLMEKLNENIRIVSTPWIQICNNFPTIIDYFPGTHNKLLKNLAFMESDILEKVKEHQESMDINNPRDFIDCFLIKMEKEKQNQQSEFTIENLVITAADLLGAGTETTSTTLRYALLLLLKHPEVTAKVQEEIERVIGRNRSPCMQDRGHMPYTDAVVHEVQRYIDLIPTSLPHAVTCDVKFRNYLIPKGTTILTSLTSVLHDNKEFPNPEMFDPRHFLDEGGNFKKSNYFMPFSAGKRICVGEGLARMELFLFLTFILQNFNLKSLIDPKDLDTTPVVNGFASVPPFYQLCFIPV

[18] = biological target: T6, Cytochrome P450 2C8 (Homo sapiens, UniProt P10632); assay: Inhibition of CYP2C8 in human liver microsomes using paclitaxel as substrate after 15 mins by LC/MS/MS analysis; format: ADME
T6 sequence (P10632 whole entry): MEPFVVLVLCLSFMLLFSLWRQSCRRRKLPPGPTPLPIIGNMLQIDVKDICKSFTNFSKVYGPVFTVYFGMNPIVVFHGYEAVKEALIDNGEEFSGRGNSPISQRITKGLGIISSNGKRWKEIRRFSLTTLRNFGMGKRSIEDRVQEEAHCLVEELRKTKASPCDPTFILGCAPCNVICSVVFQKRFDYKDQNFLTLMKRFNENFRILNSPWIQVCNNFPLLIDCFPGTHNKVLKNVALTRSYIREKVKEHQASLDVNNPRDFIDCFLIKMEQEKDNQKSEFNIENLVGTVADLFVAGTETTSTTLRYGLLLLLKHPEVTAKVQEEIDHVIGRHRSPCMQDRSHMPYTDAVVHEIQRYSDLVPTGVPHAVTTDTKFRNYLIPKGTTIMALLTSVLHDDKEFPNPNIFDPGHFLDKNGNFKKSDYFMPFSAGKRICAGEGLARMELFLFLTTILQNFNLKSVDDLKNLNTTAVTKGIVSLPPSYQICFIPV

[19] = biological target: Voltage-gated inwardly rectifying potassium channel KCNH2 (Homo sapiens, UniProt Q12809); assay: Displacement of [3H]astemizole from human ERG expressed in HEK293 cells by competitive binding assay; format: cell-based
Chain of Voltage-gated inwardly rectifying potassium channel KCNH2 (Q12809 whole entry): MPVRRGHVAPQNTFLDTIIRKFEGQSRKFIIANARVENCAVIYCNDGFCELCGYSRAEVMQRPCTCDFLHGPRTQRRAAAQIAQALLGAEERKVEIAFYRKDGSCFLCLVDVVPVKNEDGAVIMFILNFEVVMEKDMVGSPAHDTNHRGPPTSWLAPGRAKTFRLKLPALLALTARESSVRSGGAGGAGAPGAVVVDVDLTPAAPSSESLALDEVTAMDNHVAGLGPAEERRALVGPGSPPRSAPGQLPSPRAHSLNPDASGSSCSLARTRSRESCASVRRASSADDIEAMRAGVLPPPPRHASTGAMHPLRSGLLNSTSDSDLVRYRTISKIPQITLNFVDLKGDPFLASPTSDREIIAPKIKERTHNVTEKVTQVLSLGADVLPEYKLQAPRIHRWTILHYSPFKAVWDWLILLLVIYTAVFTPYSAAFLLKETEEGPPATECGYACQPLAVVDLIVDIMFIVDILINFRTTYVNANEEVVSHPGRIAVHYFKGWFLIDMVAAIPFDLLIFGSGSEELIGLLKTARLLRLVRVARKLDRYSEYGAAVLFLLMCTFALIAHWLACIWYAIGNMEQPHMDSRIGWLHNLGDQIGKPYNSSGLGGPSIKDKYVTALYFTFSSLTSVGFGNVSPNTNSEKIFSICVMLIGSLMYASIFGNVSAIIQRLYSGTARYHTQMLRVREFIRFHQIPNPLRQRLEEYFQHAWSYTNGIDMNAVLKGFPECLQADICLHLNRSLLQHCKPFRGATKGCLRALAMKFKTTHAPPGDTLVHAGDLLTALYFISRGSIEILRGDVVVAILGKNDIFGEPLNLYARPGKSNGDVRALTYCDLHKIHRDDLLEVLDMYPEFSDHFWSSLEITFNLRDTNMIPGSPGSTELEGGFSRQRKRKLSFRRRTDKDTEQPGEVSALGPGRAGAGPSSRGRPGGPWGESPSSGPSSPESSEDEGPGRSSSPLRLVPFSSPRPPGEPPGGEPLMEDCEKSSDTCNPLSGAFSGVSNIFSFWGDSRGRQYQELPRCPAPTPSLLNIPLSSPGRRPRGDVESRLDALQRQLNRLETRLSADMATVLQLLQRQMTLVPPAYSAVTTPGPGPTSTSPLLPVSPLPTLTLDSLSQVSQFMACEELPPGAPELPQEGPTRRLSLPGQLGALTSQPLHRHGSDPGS

Work on `CC1c2ncn(-c3ncccc3F)c2CCN1C(=O)c1cccc(C(F)(F)F)c1Cl` (configuration not stated) yielded an IC50 [1] of 0.009 µM.
Molecule `CC1c2ncn(-c3cnccn3)c2CCN1C(=O)c1cccc(C(F)(F)F)c1Cl` (configuration not stated) has a hepatic extraction ratio at 1 h, 1 µM [2] of 0.84, an IC50 [1] of 0.077 µM and an IC50 [3] of 1.23 µM. It also gave a hepatic extraction ratio at 1 h, 1 µM [4] of 0.77.
With `O=C(c1cccc(C(F)(F)F)c1F)N1CCc2c(ncn2-c2ccc(F)cn2)C1` the IC50 [3] was > 10 µM.
`CC(=O)N1CCN(c2ccc(OCC3COC(Cn4ccnc4)(c4ccc(Cl)cc4Cl)O3)cc2)CC1` (configuration not stated) [KETOCONAZOLE] gave an inhibition at 0.01 µM [5] of 57%, an inhibition at 0.02 µM [6] of 70% and an inhibition at 0.01 µM [7] of 53%. For the same molecule, the inhibition at 0.02 µM [8] was 74%.
With `C[C@@H]1c2ncn(-c3ccccn3)c2CCN1C(=O)c1cccc(C(F)(F)F)c1Cl` the IC50 [9] was > 10 µM, the fraction unbound at 6 h, 1 µM [10] was 0.047 and the IC50 [11] was 0.02 µM. The solubility at 72 h [12] was > 400 µM, the fraction unbound at 6 h, 1 µM [13] was 0.026 and the IC50 [14] was > 10 µM. For the same molecule, the IC50 [15] was > 10 µM, the solubility at 72 h [16] was 20 µM (≈ 8.42 µg/mL) and the IC50 [17] was > 10 µM. For the same molecule, the IC50 [18] was > 10 µM and the IC50 [19] was > 10 µM.
Molecule `O=C(c1cccc(C(F)(F)F)c1Cl)N1CCc2c(ncn2-c2ccccn2)C1` has an IC50 [1] of 0.004 µM.
Molecule `O=C(c1cccc(C(F)(F)F)c1Cl)N1CCc2c(ncn2-c2cnccn2)C1` has an IC50 [1] of 0.009 µM.
Molecule `C[C@@H]1c2ncn(-c3ccc(F)cc3)c2CCN1C(=O)c1cccc(C(F)(F)F)c1Cl` has a fraction unbound at 6 h, 1 µM [10] of 0.04, an IC50 [11] of 0.045 µM and a solubility at 72 h [12] of 165 µM (≈ 72.2 µg/mL). For the same molecule, the fraction unbound at 6 h, 1 µM [13] was 0.025 and the solubility at 72 h [16] was 14 µM (≈ 6.13 µg/mL).
For `O=C(c1cccc(C(F)(F)F)c1Cl)N1CCc2c(ncn2-c2ccccc2)C1`, the hepatic extraction ratio at 1 h, 1 µM [2] was 0.89 and the hepatic extraction ratio at 1 h, 1 µM [4] was 0.94.
For `C[C@@H]1c2ncn(-c3ncc(F)cn3)c2CCN1C(=O)c1cccc(C(F)(F)F)c1Cl`, the fraction unbound at 6 h, 1 µM [10] was 0.048, the IC50 [11] was 0.038 µM and the solubility at 72 h [12] was > 400 µM. For the same molecule, the fraction unbound at 6 h, 1 µM [13] was 0.038, the solubility at 72 h [16] was 4 µM (≈ 1.76 µg/mL) and the IC50 [17] was 7.8 µM. For the same molecule, the IC50 [19] was > 10 µM.

— ChEMBL document CHEMBL3856233, “Identification of (R)-(2-Chloro-3-(trifluoromethyl)phenyl)(1-(5-fluoropyridin-2-yl)-4-methyl-6,7-dihydro-1H-imidazo[4,5-c]pyridin-5(4H)-yl)methanone (JNJ 54166060), a Small Molecule Antagonist of the P2X7 receptor” (J Med Chem, 2016)
